This passage reports Ki, EC50 and MTD results from patent US20230321042A1, “COMBINATION THERAPY” (PFIZER INC., priority 2020, published 2023).

SMILES strings stand for the structures.

In data set [1] the target is CDK4/Cyclin D1 (Homo sapiens (Human), UniProt P11802). Description: CDK4/Cyclin D1 mobility shift assay. Particulars: 3.5 mM ATP. Type of data set: biochemical.
Protocol: The purpose CDK4/Cyclin D1 assay is to evaluate the inhibition (% inhibition, Kiapp and Ki values) in the presence of small molecule inhibitors by using a fluorescence based microfluidic mobility shift assay. […] The mobility shift assay electrophoretically separates the fluorescently labelled peptides (substrate and phosphorylated product) following the kinase reaction. Both substrate and product are measured and the ratio of these values is used to generate % conversion of substrate to product by the LabChip EZ Reader. […] The reaction was stopped after 195 minutes by the addition of 50 µL of 30 mM EDTA. Ki determinations were made from a plot of the fractional velocity as a function of inhibitor concentration fit to the Morrison equation with the enzyme concentration as a variable.
Data set [2] concerns the target CDK6/Cyclin D3 (Homo sapiens (Human), UniProt Q00534). Description: CDK6/Cyclin D3 mobility shift assay. Format: biochemical. As to conditions: 3.5 mM ATP. The protocol: The mobility shift assay electrophoretically separates the fluorescently labelled peptides (substrate and phosphorylated product) following the kinase reaction. […] Typical reaction solutions contained 2% DMSO (± inhibitor), 2% glycerol, 10 mM MgCl2, 1 mM DTT, 3.5 mM ATP, 0.005% Tween 20 (TW-20), 3 µM 5-FAM-Dyrktide, 4 nM (active sites) activated CDK6/Cyclin D3 in 40 mM HEPES buffer at pH 7.5.
The reaction was stopped after 95 minutes by the addition of 50 µL of 30 mM EDTA. Ki determinations were made from a plot of the fractional velocity as a function of inhibitor concentration fit to the Morrison equation with the enzyme concentration as a variable.

Data set [3] concerns HCC1428. Description: 7-day anti-proliferation assay (CyQuant Direct) in HCC1428. Format: cell-based. Particulars: Homo sapiens, 168 h; HCC1428, 7-day. The method, then:
(§1) Functional effects of test compounds were measured in a 7-day anti-proliferation assay in three ER+ breast cancer cell lines. Cells were seeded in 96-well plates and allowed to adhere overnight prior to compound treatment.

Data set [4] relates to MCF7. Description: 7-day anti-proliferation assay (CyQuant Direct) in MCF7. Type of data set: cell-based. Particulars: Homo sapiens, 168 h; MCF7, 7-day. The protocol: as §1
The test system of data set [5] is T47D. Description: 7-day anti-proliferation assay (CyQuant Direct) in T47D. Format: cell-based. Particulars: Homo sapiens, 168 h. The method, then: as §1
A short description of data set [6]: In vivo study in MCF-7 breast cancer xenograft. As to conditions: female, mouse, po, BID, MCF7 xenograft model, NSG mice, read-out: maximum tolerated dose level. The method, then: The MCF7 model was established by implanting passage 0 tumor fragments into recipient mice. To establish the MCF7 donor mice, tumor cells (5 × 10^6 cells/mouse with 50% Cultrex® Basement Membrane Matrix) were subcutaneously implanted in female NSG mice. Once reaching a range of 700 to 800 mm^3, donor tumors were subsequently transplanted into secondary recipient mice for study expansion. […] TGI was assessed on Day 21 post first dose (or Day 42 post tumor fragment implant). […] In the 150 mpk combination group, 50% of mice were found dead or were euthanized by the end of 21 days due to severe anemia.

Chain of CDK6/Cyclin D3 (Q00534 whole entry): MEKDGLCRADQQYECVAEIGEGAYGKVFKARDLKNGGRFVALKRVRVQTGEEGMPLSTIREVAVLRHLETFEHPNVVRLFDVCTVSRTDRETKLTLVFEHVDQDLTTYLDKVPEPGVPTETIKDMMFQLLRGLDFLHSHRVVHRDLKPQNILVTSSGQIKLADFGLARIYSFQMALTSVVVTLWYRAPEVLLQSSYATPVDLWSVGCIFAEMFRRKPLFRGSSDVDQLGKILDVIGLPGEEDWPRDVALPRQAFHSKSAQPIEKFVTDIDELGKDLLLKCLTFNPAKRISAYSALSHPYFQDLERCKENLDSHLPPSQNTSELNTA
Chain of CDK6/Cyclin D3 (P30281 whole entry partner): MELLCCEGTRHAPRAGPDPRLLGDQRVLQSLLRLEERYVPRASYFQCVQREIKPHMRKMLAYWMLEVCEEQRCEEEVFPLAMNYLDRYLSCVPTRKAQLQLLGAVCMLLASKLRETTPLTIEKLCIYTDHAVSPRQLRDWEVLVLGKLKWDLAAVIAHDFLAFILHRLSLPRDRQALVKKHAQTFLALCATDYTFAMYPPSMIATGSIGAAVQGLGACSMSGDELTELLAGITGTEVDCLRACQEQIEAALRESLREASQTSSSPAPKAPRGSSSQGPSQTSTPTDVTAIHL
Chain of CDK4/Cyclin D1 (P11802 whole entry): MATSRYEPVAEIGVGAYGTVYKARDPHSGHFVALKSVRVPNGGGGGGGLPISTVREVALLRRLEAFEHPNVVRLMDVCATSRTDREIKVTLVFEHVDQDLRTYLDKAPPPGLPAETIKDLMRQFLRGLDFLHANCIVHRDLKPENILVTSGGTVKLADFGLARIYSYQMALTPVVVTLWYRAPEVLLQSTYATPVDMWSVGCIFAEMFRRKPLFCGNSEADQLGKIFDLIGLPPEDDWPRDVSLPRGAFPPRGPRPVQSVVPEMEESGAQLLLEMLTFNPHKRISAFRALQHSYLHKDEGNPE
Chain of CDK4/Cyclin D1 (P24385 whole entry partner): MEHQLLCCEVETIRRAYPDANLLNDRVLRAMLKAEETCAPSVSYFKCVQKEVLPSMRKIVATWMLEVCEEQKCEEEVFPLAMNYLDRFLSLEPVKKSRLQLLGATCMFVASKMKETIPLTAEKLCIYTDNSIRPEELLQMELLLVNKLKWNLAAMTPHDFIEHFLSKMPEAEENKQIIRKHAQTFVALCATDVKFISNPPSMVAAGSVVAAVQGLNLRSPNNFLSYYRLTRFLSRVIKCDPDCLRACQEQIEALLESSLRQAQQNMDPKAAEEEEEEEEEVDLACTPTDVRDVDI

On to `CC[C@H](C)NC(=O)O[C@@H]1CC[C@H](c2cc(NC(=O)Cc3ccccc3S(C)(=O)=O)n[nH]2)C1` [COMPOUND B, (1R,3S)-3-[3-({[2-(methylsulfonyl)phenyl]acetyl}amino)-1H-pyrazol-5-yl]cyclopentyl (2S)-butan-2-ylcarbamate], for which the Ki in data set [1] turned out to be 107 nM; in data set [2], 254 nM. The EC50 in data set [3] was 790 nM; in data set [4], 190 nM; in data set [5] it was 220 nM.
Taken in the same sequence, the figures for `CCCNC(=O)O[C@@H]1CC[C@H](c2cc(NC(=O)Cc3ccnc(OC)c3)n[nH]2)C1` [COMPOUND C, (1R,3S)-3-(3-{[(2-methoxypyridin-4-yl)acetyl]amino}-1H-pyrazol-5-yl)cyclopentyl propylcarbamate] were 149 nM, 215 nM, 710 nM, 336 nM and 443 nM.
Turning to `CC(=O)c1c(C)c2cnc(Nc3ccc(N4CCNCC4)cn3)nc2n(C2CCCC2)c1=O` [Palbociclib, 6-acetyl-8-cyclopentyl-5-methyl-2-(5-piperazin-1-yl-pyridin-2-ylamino)-8H-pyrido[2,3-d]pyrimidin-7-one, reference compound], the EC50 in data set [3] is 355 nM; in data set [4], 79 nM; in data set [5], 87 nM.
Regarding `COCc1cc(C(=O)Nc2cc([C@H]3CC[C@@H](OC(=O)NC(C)C)C3)[nH]n2)n(C)n1` [COMPOUND A, (1R,3S)-3-[3-({[3-(methoxymethyl)-1-methyl-1H-pyrazol-5-yl]carbonyl}amino)-1H-pyrazol-5-yl]cyclopentyl propan-2-ylcarbamate], in data set [2], the Ki was 465 nM. Moreover, the EC50 in data set [3] is > 1000 nM; in data set [4], 386 nM; in data set [5], 403 nM. The MTD at 21 days in data set [6] came to 150 mg/kg.
